The values that follow come from US9856254B2, “Alkoxy substituted imidazoquinolines” (3M INNOVATIVE PROPERTIES COMPANY, priority 2003, dated 2018).

Consider `CCCc1nc2c(N)nc3cc(OCCCN)ccc3c2n1CC(C)C` [Example 8, 7-(3-Aminopropoxy)-1-(2-methylpropyl)-2-propyl-1H-imidazo[4,5-c]quinolin-4-amine], for which the melting point (as a rule, the temperature, or range, at which the solid turns liquid) was 173 to 174 °C.

`Cc1nc2c(N)nc3cc(OCCNC(=O)OC(C)(C)C)ccc3c2n1CC(C)C` [Example 9, tert-Butyl 2-{[4-amino-2-methyl-1-(2-methylpropyl)-1H-imidazo[4,5-c]quinolin-7-yl]oxy}ethylcarbamate] registered a melting point of 226.9 to 228.2 °C.

Regarding `CCCc1nc2c(N)nc3cc(OCCCNS(C)(=O)=O)ccc3c2n1CC(C)C` [Example 11, N-{3-[4-Amino-1-(2-methylpropyl)-2-propyl-1H-imidazo[4,5-c]quinolin-7-yloxy]propyl}methanesulfonamide], the melting point lay in the range of 166.5 to 168.5 °C.

In turn, `CCCc1nc2c(N)nc3cc(OCCCN4CCCS4(=O)=O)ccc3c2n1CC(C)C` [Example 13, 7-[3-(1,1-Dioxidoisothiazolidin-2-yl)propoxy]-1-(2-methylpropyl)-2-propyl-1H-imidazo[4,5-c]quinolin-4-amine] displayed a melting point of 142 to 144 °C.

`CCCc1nc2c(N)nc3cc(OCCCNS(=O)(=O)CCc4cccc5ccccc45)ccc3c2n1CC(C)C` [Example 14, N-(3-{[4-Amino-1-(2-methylpropyl)-2-propyl-1H-imidazo[4,5-c]quinolin-7-yl]oxy}propyl)-2-(1-naphthyl)ethanesulfonamide] gave a melting point of 164 to 168 °C.

`CCCc1nc2c(N)nc3cc(OCCCNC(=O)C(C)C)ccc3c2n1CC(C)C` [Example 15, N-{3-[4-Amino-1-(2-methylpropyl)-2-propyl-1H-imidazo[4,5-c]quinolin-7-yloxy]propyl}-2-methylpropanamide] yielded a melting point of 179 to 181 °C.

As to `CCCc1nc2c(N)nc3cc(OCCCNC(=O)c4cccnc4)ccc3c2n1CC(C)C` [Example 16, N-{3-[4-Amino-1-(2-methylpropyl)-2-propyl-1H-imidazo[4,5-c]quinolin-7-yloxy]propyl}nicotinamide], the melting point lay within 172 to 174 °C.

For the compound `Cc1nc2c(N)nc3cc(OCCNC(=O)C(C)C)ccc3c2n1CC(C)C` [Example 17, N-{2-[4-Amino-2-methyl-1-(2-methylpropyl)-1H-imidazo[4,5-c]quinolin-7-yloxy]ethyl}-2-methylpropanamide], the melting point lay within 205 to 206 °C.

In turn, `CCCc1nc2c(N)nc3cc(OCCN4CCCC4=O)ccc3c2n1CC(C)C` [Example 18, 1-{2-[4-Amino-1-(2-methylpropyl)-2-propyl-1H-imidazo[4,5-c]quinolin-7-yloxy]ethyl}pyrrolidin-2-one] displayed a melting point of 206 to 208 °C.

Turning to `Cc1nc2c(N)nc3cc(OCCNC(=O)N4CCOCC4)ccc3c2n1CC(C)C` [Example 19, N-(2-{[4-Amino-2-methyl-1-(2-methylpropyl)-1H-imidazo[4,5-c]quinolin-7-yl]oxy}ethyl)morpholine-4-carboxamide], the melting point was 215 to 219 °C (dec.).

Compound `CCCc1nc2c(N)nc3cc(OCCCNC(=O)N4CCOCC4)ccc3c2n1CC(C)C` [Example 20, N-(3-{[4-Amino-2-propyl-1-(2-methylpropyl)-1H-imidazo[4,5-c]quinolin-7-yl]oxy}propyl)morpholine-4-carboxamide] showed a melting point of 145 °C.

Take `CCCc1nc2c(N)nc3cc(OCCCNC(=O)NS(=O)(=O)c4ccc(F)cc4)ccc3c2n1CC(C)C` [Example 21, N-{[(3-{[4-Amino-1-(2-methylpropyl)-2-propyl-1H-imidazo[4,5-c]quinolin-7-yl]oxy}propyl)amino]carbonyl}-4-fluorobenzenesulfonamide]: the melting point is 194 to 198 °C.

In turn, `CCCc1nc2c(N)nc3cc(OCCC4CCN(C(=O)OC(C)(C)C)CC4)ccc3c2n1CC(C)C` [Example 22, tert-Butyl 4-(2-{[4-amino-1-(2-methylpropyl)-2-propyl-1H-imidazo[4,5-c]quinolin-7-yl]oxy}ethyl)piperidine-1-carboxylate] had a melting point of 196.4 to 199.6 °C.

The compound `Cc1nc2c(N)nc3cc(OCCC4CCN(C(=O)C(C)C)CC4)ccc3c2n1CC(C)C` [Example 26, 1-(4-{2-[4-Amino-2-methyl-1-(2-methylpropyl)-1H-imidazo[4,5-c]quinolin-7-yloxy]ethyl}piperidin-1-yl)-2-methylpropan-1-one] displayed a melting point of 205.1 to 207.1 °C.

Consider `Cc1nc2c(N)nc3cc(OCCC4CCN(C(=O)C5CCCC5)CC4)ccc3c2n1CC(C)C` [Example 27, 7-{2-[1-(Cyclopentylcarbonyl)piperidin-4-yl]ethoxy}-2-methyl-1-(2-methylpropyl)-1H-imidazo[4,5-c]quinolin-4-amine], for which the melting point lay in the range of 235.7 to 238.1 °C.

As for `Cc1nc2c(N)nc3cc(OCCC4CCN(C(=O)N5CCOCC5)CC4)ccc3c2n1CC(C)C` [Example 28, 2-Methyl-1-(2-methylpropyl)-7-{2-[1-(morpholin-4-ylcarbonyl)piperidin-4-yl]ethoxy}-1H-imidazo[4,5-c]quinolin-4-amine], the melting point lay within 205 to 208 °C.

`CCc1nc2c(N)nc3cc(OCC(=O)N4CCOCC4)ccc3c2n1CC(C)C` [Example 30, 2-Ethyl-1-(2-methylpropyl)-7-(2-morpholin-4-yl-2-oxoethoxy)-1H-imidazo[4,5-c]quinolin-4-amine] showed a melting point of 219 to 220 °C.

With `CCCCc1nc2c(N)nc3ccc(OCC(=O)N4CCOCC4)cc3c2n1C` [Example 32, 2-Butyl-1-methyl-8-(2-morpholin-4-yl-2-oxoethoxy)-1H-imidazo[4,5-c]quinolin-4-amine], the melting point is 256.8 to 257.2 °C.

`CCCCc1nc2c(N)nc3ccc(OCC(=O)N4CCCCC4)cc3c2n1C` [Example 33, 2-Butyl-1-methyl-8-(2-oxo-2-piperidin-1-ylethoxy)-1H-imidazo[4,5-c]quinolin-4-amine] showed a melting point of 222.5 to 223.4 °C.

Compound `CCCCc1nc2c(N)nc3ccc(OCC(=O)N(C)Cc4ccccc4)cc3c2n1C` [Example 34, 2-[(4-Amino-2-butyl-1-methyl-1H-imidazo[4,5-c]quinolin-8-yl)oxy]-N-benzyl-N-methylacetamide] came in with a melting point of 167.4 to 168.8 °C.

Compound `CCCCc1nc2c(N)nc3ccc(OCC(=O)N(CC)CC)cc3c2n1C` [Example 35, 2-[(4-Amino-2-butyl-1-methyl-1H-imidazo[4,5-c]quinolin-8-yl)oxy]-N,N-diethylacetamide] had a melting point of 185.9 to 188.1 °C.

`CCCCc1nc2c(N)nc3ccc(OCC(=O)N(CCOC)CCOC)cc3c2n1C` [Example 36, 2-[(4-Amino-2-butyl-1-methyl-1H-imidazo[4,5-c]quinolin-8-yl)oxy]-N,N-bis(2-methoxyethyl)acetamide] yielded a melting point of 125 to 128 °C.

The compound `CCCCc1nc2c(N)nc3ccc(OCCC4CCN(C(=O)OC(C)(C)C)CC4)cc3c2n1C` [Example 37, tert-Butyl 4-[2-(4-amino-2-butyl-1-methyl-1H-imidazo[4,5-c]quinolin-8-yloxy)ethyl]piperidine-1-carboxylate] returned a melting point of 171.1 to 173.2 °C.

In turn, `CCCCc1nc2c(N)nc3ccc(OCCC4CCNCC4)cc3c2n1C` [Example 38, 2-Butyl-1-methyl-8-(2-piperidin-4-ylethoxy)-1H-imidazo[4,5-c]quinolin-4-amine] gave a melting point of 210 to 212 °C.

For `CCCCc1nc2c(N)nc3ccc(OCCC4CCN(C(=O)C(C)C)CC4)cc3c2n1C` [Example 39, 1-{4-[2-(4-Amino-2-butyl-1-methyl-1H-imidazo[4,5-c]quinolin-8-yloxy)ethyl]piperidin-1-yl}-2-methylpropan-1-one], the melting point lay within 189.4 to 192.6 °C.

Consider `CCCCc1nc2c(N)nc3ccc(OCCC4CCN(C(=O)C5CCCC5)CC4)cc3c2n1C` [Example 40, 2-Butyl-8-{2-[1-(cyclopentylcarbonyl)piperidin-4-yl]ethoxy}-1-methyl-1H-imidazo[4,5-c]quinolin-4-amine], for which the melting point fell in the range of 147.2 to 150.1 °C.

In turn, `CCCCc1nc2c(N)nc3ccc(OCCC4CCN(S(C)(=O)=O)CC4)cc3c2n1C` [Example 41, 2-Butyl-8-{2-[1-(methanesulfonyl)piperidin-4-yl]ethoxy}-1-methyl-1H-imidazo[4,5-c]quinolin-4-amine] displayed a melting point of 198 to 199.5 °C.

Take `CCCCc1nc2c(N)nc3ccc(OCCC4CCN(C(=O)N5CCOCC5)CC4)cc3c2n1C` [Example 42, 2-Butyl-1-methyl-8-{2-[1-(morpholin-4-ylcarbonyl)piperidin-4-yl]ethoxy}-1H-imidazo[4,5-c]quinolin-4-amine]: the melting point was 152.8 °C (dec.).

In the case of `CCCCc1nc2c(N)nc3ccc(OCCNC(=O)CC)cc3c2n1C` [Example 43, N-[2-(4-Amino-2-butyl-1-methyl-1H-imidazo[4,5-c]quinolin-8-yloxy)ethyl]propanamide], the melting point was 250 to 255 °C (dec.).

On to `Cc1nc2c(N)nc3ccc(OCC(=O)O)cc3c2n1C` [Example 44, 2-[(4-Amino-1,2-dimethyl-1H-imidazo[4,5-c]quinolin-8-yl)oxy]acetic acid], for which the melting point is 298 °C (dec.).

On to `CCOCc1nc2c(N)nc3cc(OCCCCCCNS(C)(=O)=O)ccc3c2n1CC(C)(C)NS(C)(=O)=O` [Example 45, N-(2-{4-Amino-2-ethoxymethyl-7-[6-(methanesulfonylamino)hexyloxy]-1H-imidazo[4,5-c]quinolin-1-yl}-1,1-dimethylethyl)methanesulfonamide], for which the melting point was in the range of 176 to 180 °C.

The compound `CCOCc1nc2c(N)nc3cc(OCCCCCCNC(C)=O)ccc3c2n1CC(C)(C)NS(C)(=O)=O` [Example 46, N-(6-{[4-Amino-2-ethoxymethyl-1-(2-methanesulfonylamino-2-methylpropyl)-1H-imidazo[4,5-c]quinolin-7-yl]oxy}hexyl)acetamide] showed a melting point of 169 to 171 °C.

In turn, `CCCc1nc2c(N)nc3cc(OCCCCCCNS(C)(=O)=O)ccc3c2n1CCCCNS(C)(=O)=O` [Example 47, N-(4-{4-Amino-7-[6-(methanesulfonylamino)hexyloxy]-2-propyl-1H-imidazo[4,5-c]quinolin-1-yl}butyl)methanesulfonamide] gave a melting point of 138 to 140 °C.
